Source: article PMC9769921, “Characteristics of the GlnH and GlnX Signal Transduction Proteins Controlling PknG-Mediated Phosphorylation of OdhI and 2-Oxoglutarate Dehydrogenase Activity in Corynebacterium glutamicum” (Microbiology Spectrum, 2022)
Values joined by “and” are separate entries in the source; they are usually repeats but may differ in a detail not shown here. Equal values may be shown once.

Legend:
His10-GlnHΔSP (GlnH) = His10-GlnHΔSP (GlnH) (Corynebacterium glutamicum, UniProt Q8NM30); experiment: Isothermal titration calorimetry with His10-GlnHΔSP; assay type: binding; settings: for binding to His10-GlnHΔSP / mean observed enthalpy change: ITC, 40 mM HEPES pH 7, 100 mM KCl; for binding to His10-GlnHΔSP: 10 mM MgCl2; for mean observed enthalpy change: 10 mM MgCl2, 25°C
Text: Based on the similarity to the glutamine-binding protein GlnH of E. coli, which is part of the ABC transporter GlnHPQ ([28], [29]), the protein encoded by cg3045 in the C. glutamicum genome was initially annotated as a putative glutamine binding protein ([20]). […] To characterize the ligand binding properties of GlnH, a soluble protein version lacking the N-terminal signal peptide and the lipobox motif was overproduced in E. coli BL21(DE3) using the expression plasmid pET-TEV-glnHΔSP and purified by Ni^2+-chelate affinity chromatography. The His-tagged protein was used for interaction studies with different potential ligands using isothermal titration calorimetry (ITC). Based on the annotation, L-glutamine was first tested as a ligand, but no binding to His10-GlnHΔSP was observed under the conditions used (40 mM HEPES, pH 7, 100 mM KCl, 10 mM MgCl2). In contrast, L-aspartate and L-glutamate served as ligands for His10-GlnHΔSP, although with moderate affinity. […] In both cases, binding was exothermic with mean observed enthalpy changes of −18.5 ± 4.3 kJ/mol for L-aspartate and −17.5 ± 5.0 kJ/mol for L-glutamate. […] In Fig. 6, representative ITC experiments are shown for the five ligands tested.
Purified His10-GlnHΔSP was dialyzed overnight against a 500-fold excess of dialysis buffer (40 mM HEPES, 100 mM KCl, 10 mM MgCl2, pH 7.0). Stock solutions of the potential ligands L-aspartic acid, L-glutamic acid, L-asparagine, L-glutamine, and 2-oxoglutarate were prepared in dialysis buffer, and the pH was adjusted to pH 7.0 using KOH. ITC measurements were performed with a MicroCal PEAQ-ITC instrument (Malvern Panalytical, Malvern, Great Britain) operated at 25°C. Protein concentrations between 30 μM and 75 μM were used together with ligand concentrations of 7.5 mM to 50 mM. Prior to being filled with 300 μL protein solution, the measuring cell was rinsed with dialysis buffer, while the syringe was filled with 75 μL ligand solution. An ITC run was started with an initial injection of 0.4 μL followed by 12 injections of 3 μL each. In addition, control experiments with ligand solution titrated into the dialysis buffer were performed. The data were analyzed using MicroCal ITC analysis software (Malvern Panalytical), and a fixed 1:1 binding stoichiometry was assumed to determine the binding affinity.

C. glutamicum = tested on: C. glutamicum; design: method as in PMID 15870446; settings: cited from earlier work
M. tuberculosis GlnH = target: M. tuberculosis GlnH; design: method as in PMID 30065086; settings: cited from earlier work
His10-GlnHcore (GlnH) = His10-GlnHcore (GlnH) (Corynebacterium glutamicum, UniProt Q8NM30); experiment: Intrinsic tryptophan fluorescence ligand binding, parental His10-GlnHcore
GlnH of C. glutamicum [1] = target: GlnH of C. glutamicum; design: method as in PMID 30065086; settings: change in intrinsic tryptophan fluorescence; cited from earlier work
GlnH of C. glutamicum [2] = tested on: GlnH of C. glutamicum; design: method as in PMID 30065086; settings: cited from earlier work
[3] = target: T1, OdhA subunit of the 2-oxoglutarate dehydrogenase complex (ODH) (Corynebacterium glutamicum (endogenous in C. glutamicum ΔodhI)) (UniProt Q8NRC3)
T1 sequence: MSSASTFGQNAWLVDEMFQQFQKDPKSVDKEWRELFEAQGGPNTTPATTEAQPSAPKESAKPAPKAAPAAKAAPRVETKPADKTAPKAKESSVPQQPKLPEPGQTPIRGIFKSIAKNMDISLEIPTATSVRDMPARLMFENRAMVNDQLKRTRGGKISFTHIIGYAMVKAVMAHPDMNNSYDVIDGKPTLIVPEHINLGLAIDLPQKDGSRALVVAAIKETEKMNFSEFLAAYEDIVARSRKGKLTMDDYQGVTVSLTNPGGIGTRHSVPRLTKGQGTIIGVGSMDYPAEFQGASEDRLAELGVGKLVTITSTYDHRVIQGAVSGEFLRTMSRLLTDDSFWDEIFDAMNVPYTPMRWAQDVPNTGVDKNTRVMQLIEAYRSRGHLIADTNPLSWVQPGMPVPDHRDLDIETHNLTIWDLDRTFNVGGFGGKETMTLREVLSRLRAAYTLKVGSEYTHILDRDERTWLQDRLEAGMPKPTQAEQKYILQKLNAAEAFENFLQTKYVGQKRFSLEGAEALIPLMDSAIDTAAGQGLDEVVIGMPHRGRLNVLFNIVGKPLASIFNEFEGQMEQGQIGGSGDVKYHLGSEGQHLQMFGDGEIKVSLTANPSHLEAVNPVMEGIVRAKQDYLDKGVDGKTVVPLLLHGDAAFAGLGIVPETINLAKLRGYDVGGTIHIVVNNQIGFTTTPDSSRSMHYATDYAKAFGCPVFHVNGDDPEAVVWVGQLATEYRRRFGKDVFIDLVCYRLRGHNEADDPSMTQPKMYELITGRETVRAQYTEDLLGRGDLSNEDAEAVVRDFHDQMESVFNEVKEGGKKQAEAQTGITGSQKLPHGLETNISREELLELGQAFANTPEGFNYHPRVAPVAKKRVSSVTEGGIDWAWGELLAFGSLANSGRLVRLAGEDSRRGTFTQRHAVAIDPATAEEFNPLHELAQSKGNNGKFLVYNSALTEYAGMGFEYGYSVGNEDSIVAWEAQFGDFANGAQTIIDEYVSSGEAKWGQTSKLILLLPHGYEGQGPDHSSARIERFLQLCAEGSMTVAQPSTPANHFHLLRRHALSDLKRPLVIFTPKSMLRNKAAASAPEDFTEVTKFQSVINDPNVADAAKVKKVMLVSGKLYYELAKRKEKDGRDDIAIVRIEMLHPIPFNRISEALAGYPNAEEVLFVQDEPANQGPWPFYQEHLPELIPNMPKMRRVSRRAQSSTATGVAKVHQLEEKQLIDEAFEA

[4] = target: 2-oxoglutarate dehydrogenase complex (ODH) (Corynebacterium glutamicum, UniProt Q8NRC3); experiment: ODH activity of cell-free extracts of C. glutamicum ΔodhI with added OdhI variants (photometric, NADH formation); settings: 100% = 135 ± 12 nmol min^−1 (mg protein)^−1 without added OdhI
Chain of 2-oxoglutarate dehydrogenase complex (ODH) (Q8NTE1 whole entry, one chain of several): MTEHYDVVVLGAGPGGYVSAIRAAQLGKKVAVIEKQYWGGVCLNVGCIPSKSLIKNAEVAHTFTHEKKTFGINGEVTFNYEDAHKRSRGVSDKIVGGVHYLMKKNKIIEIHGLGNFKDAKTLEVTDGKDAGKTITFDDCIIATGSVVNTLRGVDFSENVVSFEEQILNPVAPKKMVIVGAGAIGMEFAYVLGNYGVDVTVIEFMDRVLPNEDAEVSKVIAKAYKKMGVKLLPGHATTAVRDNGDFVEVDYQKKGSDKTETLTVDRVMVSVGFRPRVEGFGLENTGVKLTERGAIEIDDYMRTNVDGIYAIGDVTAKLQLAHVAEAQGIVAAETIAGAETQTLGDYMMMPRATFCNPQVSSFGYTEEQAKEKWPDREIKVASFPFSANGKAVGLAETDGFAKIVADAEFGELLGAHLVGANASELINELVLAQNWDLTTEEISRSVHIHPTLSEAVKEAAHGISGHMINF
Chain of 2-oxoglutarate dehydrogenase complex (ODH) (Q8NNJ2 whole entry, one chain of several, further chain): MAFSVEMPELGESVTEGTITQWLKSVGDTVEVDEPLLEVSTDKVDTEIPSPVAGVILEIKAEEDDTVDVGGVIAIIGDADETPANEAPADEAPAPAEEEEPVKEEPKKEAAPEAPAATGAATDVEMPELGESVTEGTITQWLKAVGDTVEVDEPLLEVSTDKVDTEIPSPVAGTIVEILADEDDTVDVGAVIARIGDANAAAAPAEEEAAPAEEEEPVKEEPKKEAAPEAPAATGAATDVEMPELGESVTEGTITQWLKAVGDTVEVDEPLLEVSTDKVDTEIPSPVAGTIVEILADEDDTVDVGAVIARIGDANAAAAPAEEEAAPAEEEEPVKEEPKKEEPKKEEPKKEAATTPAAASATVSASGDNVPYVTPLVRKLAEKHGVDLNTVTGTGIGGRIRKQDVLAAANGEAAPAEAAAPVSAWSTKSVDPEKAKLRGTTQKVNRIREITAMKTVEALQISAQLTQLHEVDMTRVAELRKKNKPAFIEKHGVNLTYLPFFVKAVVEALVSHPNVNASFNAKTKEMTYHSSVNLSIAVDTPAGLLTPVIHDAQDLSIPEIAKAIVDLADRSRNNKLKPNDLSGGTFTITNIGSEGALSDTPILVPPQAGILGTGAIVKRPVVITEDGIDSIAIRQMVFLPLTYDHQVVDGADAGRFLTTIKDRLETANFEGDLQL
Procedure: Determination of the ODH activity in the presence of different OdhI variants was carried out using a photometric assay following NADH formation as described previously ([6], [8]).

Chain of His10-GlnHΔSP (GlnH) (Q8NM30 entry or part of it, stated change not applied): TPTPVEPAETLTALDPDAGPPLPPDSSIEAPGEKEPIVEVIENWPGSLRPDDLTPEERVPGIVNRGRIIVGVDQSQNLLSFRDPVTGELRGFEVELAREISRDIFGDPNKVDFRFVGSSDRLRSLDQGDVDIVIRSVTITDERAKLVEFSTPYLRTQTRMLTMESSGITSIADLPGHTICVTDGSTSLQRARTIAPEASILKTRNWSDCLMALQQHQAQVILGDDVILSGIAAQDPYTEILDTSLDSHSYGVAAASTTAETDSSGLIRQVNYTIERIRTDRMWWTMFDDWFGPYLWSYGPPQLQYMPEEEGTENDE
Chain of His10-GlnHcore (GlnH) (Q8NM30 entry or part of it): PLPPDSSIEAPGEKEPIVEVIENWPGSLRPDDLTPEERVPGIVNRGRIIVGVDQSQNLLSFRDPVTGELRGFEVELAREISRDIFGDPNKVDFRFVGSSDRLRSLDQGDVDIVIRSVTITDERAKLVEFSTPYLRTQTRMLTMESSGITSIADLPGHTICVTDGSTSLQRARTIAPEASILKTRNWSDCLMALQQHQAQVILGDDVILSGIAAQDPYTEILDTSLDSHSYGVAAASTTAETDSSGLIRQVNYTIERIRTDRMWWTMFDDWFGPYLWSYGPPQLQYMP

Molecule: O=C(O)CCC(=O)C(=O)O [2-oxoglutarate]
- binding to His10-GlnHΔSP (His10-GlnHΔSP (GlnH)): no interaction

Molecule: CC[C@@H](CO)NCCN[C@@H](CC)CO [Ethambutol]
- effect on glutamate secretion (C. glutamicum): trigger glutamate secretion

Molecule: NC(=O)CC[C@H](N)C(=O)O [L-glutamine]
- binding to His10-GlnHΔSP (His10-GlnHΔSP (GlnH)): no binding

Molecule: N[C@@H](CC(=O)O)C(=O)O [L-aspartate]
- Kd (M. tuberculosis GlnH): 4.8 ± 0.6 µM
- Kd (His10-GlnHcore (GlnH)): 242 µM
- Kd (His10-GlnHΔSP (GlnH)): 264 ± 14.6 µM
- mean observed enthalpy change (His10-GlnHΔSP (GlnH)): -4.42 ± 1.03 kcal/mol
- Kd (GlnH of C. glutamicum [1]): 550 ± 90 µM
- effect on thermal stability of GlnH (GlnH of C. glutamicum [2]): increased the thermal stability

Molecule: N[C@@H](CCC(=O)O)C(=O)O [L-glutamate]
- Kd (M. tuberculosis GlnH): 15.2 ± 5.7 µM
- Kd (His10-GlnHcore (GlnH)): 1460 µM
- Kd (His10-GlnHΔSP (GlnH)): 1260 µM
- mean observed enthalpy change (His10-GlnHΔSP (GlnH)): -4.18 ± 1.2 kcal/mol
- Kd (GlnH of C. glutamicum [1]): 2060 µM
- effect on thermal stability of GlnH (GlnH of C. glutamicum [2]): increased the thermal stability

Molecule: NC(=O)C[C@H](N)C(=O)O [L-asparagine]
- binding to His10-GlnHΔSP (His10-GlnHΔSP (GlnH)): no interaction

B1: OdhI (natural protein)
chain: MSDNNGTPEPQVETTSVFRADLLKEMESSTGTAPASTGAENLPAGSALLVVKRGPNAGARFLLDQPTTTAGRHPESDIFLDDVTVSRRHAEFRINEGEFEVVDVGSLNGTYVNREPRNAQVMQTGDEIQIGKFRLVFLAGPAE
- residual ODH activity of cell-free extracts of C. glutamicum ΔodhI after adding 0.38 nM or 1.9 nM purified OdhI (activity without OdhI = 100%) [3]: 3%

B2: OdhI-R87P (natural protein)
chain: MSDNNGTPEPQVETTSVFRADLLKEMESSTGTAPASTGAENLPAGSALLVVKRGPNAGARFLLDQPTTTAGRHPESDIFLDDVTVSPRHAEFRINEGEFEVVDVGSLNGTYVNREPRNAQVMQTGDEIQIGKFRLVFLAGPAE
- relative specific ODH activity (residual activity) ([4]; 0.38 nM protein added): 83.1%
- residual ODH activity of cell-free extracts of C. glutamicum ΔodhI after adding 0.38 nM or 1.9 nM purified OdhI-R87P (activity without OdhI = 100%) [3]: > 50%

B3: OdhI-R87A (natural protein)
chain: MSDNNGTPEPQVETTSVFRADLLKEMESSTGTAPASTGAENLPAGSALLVVKRGPNAGARFLLDQPTTTAGRHPESDIFLDDVTVSARHAEFRINEGEFEVVDVGSLNGTYVNREPRNAQVMQTGDEIQIGKFRLVFLAGPAE
- relative specific ODH activity (residual activity) ([4]; 0.38 nM protein added): 68.9%
- residual ODH activity of cell-free extracts of C. glutamicum ΔodhI after adding 0.38 nM or 1.9 nM purified OdhI-R87A (activity without OdhI = 100%) [3]: > 50%

B4: OdhI: 15-kDa forkhead-associated (FHA) domain-containing protein of C. glutamicum that inhibits ODH; purified, untagged (protein)
chain: MSDNNGTPEPQVETTSVFRADLLKEMESSTGTAPASTGAENLPAGSALLVVKRGPNAGARFLLDQPTTTAGRHPESDIFLDDVTVSRRHAEFRINEGEFEVVDVGSLNGTYVNREPRNAQVMQTGDEIQIGKFRLVFLAGPAE
modifications: left off: His10, N-terminal, cleaved
- relative specific ODH activity (residual activity) ([4]; 0.38 nM protein added): 18.6%
- relative specific ODH activity (residual activity) ([4]; 1.9 nM protein added): 3% and 3.1%
